Data: patent US12661348B2, “Systemic formulation of a pyridinone derivate for TG2-related diseases” (Dr. Falk Pharma GmbH, priority 2020, dated 2026)

Experiments:
[1] = system: UUO-model in the C57BL/6-mouse; assay: Unilateral ureteral obstruction model (UUO-model) for nephritic fibrosis; type: in vivo; conditions: 100, 300, 1000 mg/kg body weight daily, oral suspension, two weeks
Excerpt: The anti-fibrotic effect of (S,E)-methyl-7-(1-(2-(2-ethylbutylamino)-2-oxoethyl)-2-oxo-1,2-dihydro-pyridin-3-ylamino)-6-(1-methyl-1H-imidazole-5-carboxamido)-7-oxohept-2-enoate (compound of formula (I)) in the kidney was investigated in an UUO-model in the C57BL/6-mouse. In a UUO-model, in one of the kidneys fibrosis is induced by ligation of one ureter. The other kidney remains functional. The pathophysiology of the UUO-model resembles the chronic nephropathy in humane (Chronic Kidney Disease, CKD).
Groups of 8 UUO-mice were treated directly after ligation of the ureter over a time period of two weeks with three different dosages of said compound: 100 mg/kg body weight, 300 mg/kg body weight, and 1000 mg/kg body weight. The daily dosage was administered orally as a suspension at intervals of 8 hours. In a control group, the UUO-mice were treated in same way but merely with the vehicle methyl cellulose. After the end of the treatment, the histopathological investigation of the kidney tissue as well as the determination of the amount of hydroxyproline in the kidney was performed. […]

[2] = system: STAM-model in the C57BL/6-mouse; assay: Stelic animal model (STAM-model) for non-alcoholic steatohepatitis; type: in vivo
Description: The anti-fibrotic effect of compound of formula (I) in the liver was investigated in a STAM-model for non-alcoholic steatohepatitis. This model bases on the induction of a chronical fibrotic inflammation of the liver by means of the combination of a chemical noxin (Streptozotocin) and a fat-containing diet in the C57BL/6-mouse. The pathology is similar to the described NASH in human.
Groups of 8 STAM-mice were treated directly over a time period of two weeks with three different dosages of said compound: 100 mg/kg body weight, 300 mg/kg body weight, and 1000 mg/kg body weight. The daily dosage was administered orally as a suspension in two parts at intervals of 8 hours. In a control group, the STAM-mice were treated in same way but merely with the vehicle methyl cellulose. After the end of the treatment, a measurement of the biochemical parameter in the Plasma and after dissection of the animals a histopathological investigation for the liver, the determination of the fat content of the liver as well as the determination of the expression of inflammation and fibrosis marker was performed.

[3] = Saturation solubility, pH-range 1 to 6.8, HPLC/UV; type: physicochemical; conditions: pH=6.8 (small intestine) compared with pH~1
[4] = system: adult patients with Celiac Disease (CeD); assay: 6-week treatment of Celiac Disease patients under gluten challenge: ALT, AST, ALP levels; type: in vivo, human; conditions: for ALP, Change from baseline / ALT, Change from baseline / AST, Change from baseline / ALP, Difference versus placebo / ALT, Difference versus placebo / AST, Difference versus placebo: baseline to week 6; for Mean alanine aminotransferase (ALT) level, Baseline / Mean alkaline phosphatase (ALP) level, Baseline / Mean aspartate aminotransferase (AST) level, Baseline / Mean ALP level, Week 6 / Mean ALT level, Week 6 / Mean AST level, Week 6: safety population
Description: (§1) The efficacy and safety of a 6-week treatment with the compound of formula (I) in the hard gelatine capsule formulation described in example 2 was investigated in 160 adult patients with Celiac Disease (CeD). Patients, who were in clinical and histological remission at start of the study were challenged with 3 grams daily gluten intake and randomized to receive placebo or one of 3 doses of the compound of formula (I), i.e. 10 mg, 50 mg or 100 mg. Each morning after at least 6 hours of fasting, patients took the study drug orally, followed by one biscuit containing 3 g of gluten 30 minutes later, before breakfast. Throughout the 6-week study, patients were required to continue their strict gluten free diet.
as §1, with “described in the example 2” for “described in example 2”, “gluten free diet (see FIG. 12).” for “gluten free diet.”

CCC(CC)CNC(=O)Cn1cccc(NC(=O)[C@H](CC/C=C/C(=O)OC)NC(=O)c2cncn2C)c1=O [compound of formula (I), (S,E)-methyl-7-(1-(2-(2-ethylbutylamino)-2-oxoethyl)-2-oxo-1,2-dihydro-pyridin-3-ylamino)-6-(1-methyl-1H-imidazole-5-carboxamido)-7-oxohept-2-enoate]
hydroxyproline content in the kidney [1]: remained unaffected | fibrotic area of the kidney ([1]; versus vehicle control): significant, marked, dosage dependent reduction | liver histology ([2]; 100, 300, 1000 mg/kg body weight daily, oral suspension in two parts, two weeks): significant, dosage dependent improvement | fibrotic area in the liver ([2]; 100, 300, 1000 mg/kg, significant in the middle and high dosage group): marked, dosage dependent reduction | liver inflammation ([2]; STAM mice): dose-dependent and significant reduction | fat content in the liver ([2]; STAM-mice, oral, two weeks): no influence | reduction of the fibrosis compared with positive control Telmisartan ([2]; high dosage group, comparison with historical data): lay in the area of Telmisartan | NAFLD Activity Score (NAS) ([2]; middle and high dosage group (300, 1000 mg/kg), mainly reduction of inflammation and ballooning): reduced in the middle and high dosage group | saturation solubility [3]: much lower | ALP, Change from baseline ([4]; 10 mg (N = 41)): −1.0 U/L | ALT, Change from baseline ([4]; 10 mg (N = 41)): −0.5 U/L | AST, Change from baseline ([4]; 10 mg (N = 41)): 0 U/L | Mean alanine aminotransferase (ALT) level, Baseline ([4]; 10 mg (N = 41)): 20.5 U/L | Mean alkaline phosphatase (ALP) level, Baseline ([4]; 10 mg (N = 41)): 60.0 U/L | Mean aspartate aminotransferase (AST) level, Baseline ([4]; 10 mg (N = 41)): 22.5 U/L | Mean ALP level, Week 6 ([4]; 10 mg (N = 41)): 59.3 U/L | Mean ALT level, Week 6 ([4]; 10 mg (N = 41)): 20.0 U/L | Mean AST level, Week 6 ([4]; 10 mg (N = 41)): 22.5 U/L | Mean ALT level, Week 10 (Follow-up) ([4]; 10 mg (N = 41)): 19.7 U/L | Mean AST level, Week 10 (Follow-up) ([4]; 10 mg (N = 41)): 20.6 U/L | ALP, Difference versus placebo ([4]; 10 mg versus placebo): −2.6 U/L | ALT, Difference versus placebo ([4]; 10 mg versus placebo, P value 0.0019): −4.4 U/L | AST, Difference versus placebo ([4]; 10 mg versus placebo, P value 0.0448): −3.2 U/L | ALP, Change from baseline ([4]; 50 mg (N = 41)): −0.5 U/L | ALT, Change from baseline ([4]; 50 mg (N = 41)): 0.8 U/L | AST, Change from baseline ([4]; 50 mg (N = 41)): 1.0 U/L | Mean alanine aminotransferase (ALT) level, Baseline ([4]; 50 mg (N = 41)): 21.4 U/L | Mean alkaline phosphatase (ALP) level, Baseline ([4]; 50 mg (N = 41)): 57.8 U/L | Mean aspartate aminotransferase (AST) level, Baseline ([4]; 50 mg (N = 41)): 22.6 U/L | Mean ALP level, Week 6 ([4]; 50 mg (N = 41)): 57.3 U/L | Mean ALT level, Week 6 ([4]; 50 mg (N = 41)): 22.2 U/L | Mean AST level, Week 6 ([4]; 50 mg (N = 41)): 23.6 U/L | Mean ALT level, Week 10 (Follow-up) ([4]; 50 mg (N = 41)): 21.7 U/L | Mean AST level, Week 10 (Follow-up) ([4]; 50 mg (N = 41)): 21.9 U/L | ALP, Difference versus placebo ([4]; 50 mg versus placebo): −2.8 U/L | ALT, Difference versus placebo ([4]; 50 mg versus placebo, P value 0.0069): −3.8 U/L | AST, Difference versus placebo ([4]; 50 mg versus placebo, P value 0.1423): −2.2 U/L | ALP, Change from baseline ([4]; 100 mg (N = 40)): −0.5 U/L | ALT, Change from baseline ([4]; 100 mg (N = 40)): −2.6 U/L | AST, Change from baseline ([4]; 100 mg (N = 40)): −0.4 U/L | Mean alanine aminotransferase (ALT) level, Baseline ([4]; 100 mg (N = 40)): 26.3 U/L | Mean alkaline phosphatase (ALP) level, Baseline ([4]; 100 mg (N = 40)): 62.7 U/L | Mean aspartate aminotransferase (AST) level, Baseline ([4]; 100 mg (N = 40)): 26.8 U/L | Mean ALP level, Week 6 ([4]; 100 mg (N = 40)): 62.3 U/L | Mean ALT level, Week 6 ([4]; 100 mg (N = 40)): 23.7 U/L | Mean AST level, Week 6 ([4]; 100 mg (N = 40)): 26.5 U/L | Mean ALT level, Week 10 (Follow-up) ([4]; 100 mg (N = 40)): 23.9 U/L | Mean AST level, Week 10 (Follow-up) ([4]; 100 mg (N = 40)): 24.3 U/L | ALP, Difference versus placebo ([4]; 100 mg versus placebo): −2.8 U/L | ALT, Difference versus placebo ([4]; 100 mg versus placebo, P value 0.0022): −4.3 U/L | AST, Difference versus placebo ([4]; 100 mg versus placebo, P value 0.8551): 0.3 U/L | elevation of alanine aminotransferase (ALT) from baseline to week 6 ([4]; 10, 50, 100 mg groups, gluten challenge, elevation seen in placebo group): not observed | difference between each drug group and placebo in ALT ([4]; P<0.01 for all comparisons): statistically significant | levels of AST, ALT, total protein ([4]; oral, doses of 10, 50 and 100 mg in human): significantly reduced
